The text below walks through data of ChEMBL document CHEMBL1201862, “PubChem BioAssay data set” (2004).

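Five compound concentrations were applied to cells in 96-well plates for 48 hours; endpoints were derived by simple linear interpolation of the resulting dose-response curve. GI50 marks 50% less growth.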 The source made the active and inactive calls. No stated cut-off is given here; in the data, active = GI50 up to about 1.1 µM and inactive = higher.

What all share (assay): NCI anticancer screen, dose series, 48 h
The test system of assay [1] is NCI-H23.
The subject of assay [2] is HL-60.
The test system of assay [3] is UACC-62.
Assay [4] has as its system EKVX.
Assay [5] has as its system HOP-92.
For assay [6], the system named is SF-539.
Assay [7] relates to IGROV-1.
Assay [8] relates to SN12C.
Assay [9] concerns BT-549.
The subject of assay [10] is HOP-62.
For assay [11], the system named is HCC 2998.
Assay [12] deals with RPMI-8226.
The subject of assay [13] is NCI-H522.
For assay [14], the system named is DU-145.
Assay [15] has as its system MDA-N.
Assay [16] has as its system NCI/ADR-RES.
For assay [17], the system named is Malme-3M.
Assay [18] concerns MDA-MB-231.
Assay [19] relates to SNB-75.
The test system of assay [20] is LXFL 529.

On to `CC1=CCC[C@@H]2[C@@](C)(Cc3cc(O)ccc3O)[C@H](C)CC[C@@]12C`, for which the GI50 in assay [1] is 5.87 µM (inactive); in assay [2], 1.81 µM (inactive); in assay [3] it was 10.5 µM (inactive); in assay [4] it was 6.5 µM (inactive); in assay [5] it was 4.84 µM (inactive); in [6], 6.18 µM (inactive). The GI50 in assay [7] was 4.76 µM (inactive); in assay [8] it was 9.2 µM (inactive); in assay [9] it was 5.47 µM (inactive); in [10], 9.62 µM (inactive); in [11] it was 7.66 µM (inactive); in assay [12], 3.44 µM (inactive). Also, the GI50 in [13] is 4.83 µM (inactive); in [14] it was 10.3 µM (inactive); in assay [15], 5.53 µM (inactive); in assay [16], 5.24 µM (inactive); in [17], 16.4 µM (inactive); in [18] it was 11.9 µM (inactive). The GI50 in assay [19] was 5.47 µM (inactive).
For `O=C(CCc1ccc(O)c(O)c1)NCCc1ccccc1`, the GI50 in assay [1] is 35.2 µM (inactive); in assay [2] it was 6.58 µM (inactive); in assay [3], 24.5 µM (inactive); in assay [4] it was > 94.2 µM (inactive); in [5] it was 48.3 µM (inactive); in [6], > 47.8 µM (inactive). The GI50 is 50.9 µM (inactive) in assay [7]; > 31.6 µM (inactive) in assay [8]; 31.8 µM (inactive) in assay [9]; > 100 µM (inactive) in [10]; > 100 µM (inactive) in [11]; 6.1 µM (inactive) in [12]. The GI50 in assay [13] was 5.6 µM (inactive); in [14], > 88.1 µM (inactive); in assay [15], 19 µM (inactive); in [16], 40.4 µM (inactive); in [17], > 100 µM (inactive); in assay [18], 16.8 µM (inactive). The GI50 in [19] is > 48 µM (inactive).
Turning to `Cc1nc(C)c(N2CCN(C#N)CC2)c(O)n1`, the GI50 in [1], in assay [2], in assay [3], in assay [4], in [5] and in [6] was > 100 µM (inactive) in each case. Further, the GI50 in [7], in assay [8], in [9], in assay [10], in assay [11] and in assay [12] was > 100 µM (inactive) throughout. For the same molecule, the GI50 in [13], in [14], in assay [15], in [16], in [17] and in assay [18] was > 100 µM (inactive) each time. In addition, the GI50 in [19] was 0.0442 µM (active).
As for `CC(=O)N(C(C)=O)c1ncc(-n2nc(-c3ccccc3)cc2-c2ccccc2)c(-c2ccccc2)n1`, the GI50 was > 10 µM (inactive) in [1]; 7.83 µM (inactive) in assay [2]; > 10 µM (inactive) in assay [3]; > 10 µM (inactive) in assay [4]; > 10 µM (inactive) in assay [5]; > 10 µM (inactive) in [6]. The GI50 in assay [7], in assay [8], in [9], in assay [10], in assay [11] and in assay [12] was > 10 µM (inactive) each time. In addition, the GI50 was > 10 µM (inactive) in assay [13]; > 10 µM (inactive) in [14]; 3.15 µM (inactive) in assay [15]; > 10 µM (inactive) in [16]; > 10 µM (inactive) in assay [17]; > 10 µM (inactive) in assay [18]. Moreover, the GI50 in assay [19] is > 10 µM (inactive).
Regarding `C=CCC1(O)c2ccccc2C(=O)c2c(O)ccc(O)c21` (configuration not stated), the GI50 was 10.7 µM (inactive) in assay [1]; 3.06 µM (inactive) in assay [2]; 4.01 µM (inactive) in assay [3]; 11.4 µM (inactive) in assay [4]; 12.9 µM (inactive) in assay [5]; 7.93 µM (inactive) in assay [6]. For the same molecule, the GI50 in assay [7] is 5.98 µM (inactive); in assay [8], 11.6 µM (inactive); in assay [9] it was 6.03 µM (inactive); in [10] it was 12.4 µM (inactive); in assay [11], 3.94 µM (inactive); in assay [12], > 23.8 µM (inactive). The GI50 in assay [13] was 2.62 µM (inactive); in [14], 9.95 µM (inactive); in assay [15], 2.12 µM (inactive); in assay [16], 2.12 µM (inactive); in [17], 3.4 µM (inactive); in assay [18], 6.15 µM (inactive). In addition, the GI50 in assay [19] is 3.82 µM (inactive).
In the case of `Cc1cccc2c1Sc1ccccc1C2NC(=O)CCN(C)C` (configuration not stated), the GI50 in [1], in [2], in assay [3], in [4], in [6] and in assay [7] was > 100 µM (inactive) each time. Further, the GI50 is > 100 µM (inactive) in assay [8]; > 100 µM (inactive) in [10]; > 100 µM (inactive) in [11]; > 100 µM (inactive) in assay [12]; > 100 µM (inactive) in assay [20]; 96.4 µM (inactive) in assay [19].
On to `CC(CN1NC12CCCC2)N1NC12CCCC2` (configuration not stated), for which the GI50 in assay [1], in assay [2], in assay [3], in [4], in assay [5] and in assay [6] was > 100 µM (inactive) each time. Also, the GI50 in [7], in [8], in [9], in assay [10], in assay [11] and in assay [12] was > 100 µM (inactive) in each case. The GI50 in [13], in assay [14], in assay [15], in assay [16], in assay [17] and in assay [18] was > 100 µM (inactive) in each case. Besides, the GI50 in assay [19] was > 100 µM (inactive).
As for `COC(=O)c1c(OC(C)=O)ccc2c1c1c(n2Cc2ccccc2)C(=O)c2ccccc2C1=O`, the GI50 was 19.5 µM (inactive) in assay [1]; 25.8 µM (inactive) in assay [2]; 22.5 µM (inactive) in assay [3]; 19.6 µM (inactive) in assay [4]; 21.4 µM (inactive) in assay [5]; 17.9 µM (inactive) in assay [6]. The GI50 in [7] was 20.1 µM (inactive); in [8], 19.1 µM (inactive); in assay [9], 23.2 µM (inactive); in [10] it was 24.1 µM (inactive); in assay [11], 16.2 µM (inactive); in [12], 15.7 µM (inactive). Moreover, the GI50 in assay [13] was 19.5 µM (inactive); in assay [14], 17 µM (inactive); in assay [15], 18.7 µM (inactive); in [16] it was 24 µM (inactive); in assay [17], 30 µM (inactive); in assay [18], 17.1 µM (inactive). In assay [19], the GI50 was 22.2 µM (inactive).
As to `C=C1C(=O)OC2CC(C)C(C(O)CC(C)O)=CCC12` (configuration not stated), the GI50 was 15.6 µM (inactive) in assay [1]; 3.08 µM (inactive) in assay [2]; 16.6 µM (inactive) in [3]; 12.5 µM (inactive) in assay [4]; 12 µM (inactive) in assay [5]; 15 µM (inactive) in assay [6]. Moreover, the GI50 in assay [7] is 16.8 µM (inactive); in assay [8], 11.4 µM (inactive); in assay [9] it was 13.4 µM (inactive); in assay [10] it was 26.2 µM (inactive); in [11] it was 18 µM (inactive); in assay [12] it was 6.67 µM (inactive). Moreover, the GI50 in [13] is 1.61 µM (inactive); in assay [14], 14.2 µM (inactive); in assay [15], 12.4 µM (inactive); in assay [16], 17 µM (inactive); in assay [17], 7.74 µM (inactive); in assay [18], 17.8 µM (inactive). Further, in [19], the GI50 was 18.3 µM (inactive).
As to `CCCCCCCCC[n+]1cccc(C2C(C(=O)OCC)=C(C)NC(C)=C2C(=O)OCC)c1`, the GI50 in [1] is 4.36 µM (inactive); in [2], 2.82 µM (inactive); in [3], 1.54 µM (inactive); in assay [4] it was 11.9 µM (inactive); in assay [5] it was 1.95 µM (inactive); in assay [6], 4.15 µM (inactive). Also, the GI50 in [7] was 2.02 µM (inactive); in assay [8] it was 4.67 µM (inactive); in assay [9], 1.71 µM (inactive); in [10], 13 µM (inactive); in [11] it was 6.01 µM (inactive); in assay [12] it was 1.54 µM (inactive). Further, the GI50 was 2.68 µM (inactive) in assay [13]; 11.6 µM (inactive) in assay [14]; 2.13 µM (inactive) in assay [15]; 52.6 µM (inactive) in [16]; 1.9 µM (inactive) in assay [17]; 2.97 µM (inactive) in [18]. The GI50 in [19] is 3.67 µM (inactive).
Regarding `C=C1C(=O)C23CC1C[C@H](OC(C)=O)[C@H]2C1(C)C(OC(C)=O)C[C@H](O)C(C)(C)[C@H]1C(=O)[C@@H]3OC(C)=O` (some centres not stated), the GI50 was 3.58 µM (inactive) in assay [1]; 2.18 µM (inactive) in assay [2]; 4.86 µM (inactive) in assay [3]; 6.84 µM (inactive) in [4]; 0.248 µM (active) in assay [5]; 2.69 µM (inactive) in assay [6]. The GI50 was 12.4 µM (inactive) in assay [7]; 4.76 µM (inactive) in assay [8]; 2.84 µM (inactive) in [9]; 25.2 µM (inactive) in [10]; 19.2 µM (inactive) in assay [11]; 1.33 µM (inactive) in assay [12]. For the same molecule, the GI50 in assay [13] was 1.57 µM (inactive); in assay [14], 12.9 µM (inactive); in [15], 1.69 µM (inactive); in [16] it was 16.7 µM (inactive); in assay [17] it was 2.17 µM (inactive); in assay [18] it was 5.7 µM (inactive). Also, the GI50 in assay [19] is 18.4 µM (inactive).
